Experimental data taken from the supplement of paper PMC10307832.

Legend:
Experiment in all cases: relative viability (nuclei count vs DMSO), 5 days (fraction); higher = more cells survive
NCI-H1355 = test system: NCI-H1355
How it was run: (§1)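 Medians of duplicate plates are given as relative viability. That measure is the nuclei count in treated wells divided by the count in vehicle wells. Counts were taken on 4× images of lung cancer cell lines in 1536-well plates, 5 days after pin-tool dosing the day after seeding with one drug alone or a fixed anchor-drug dose plus five library-drug doses (not always all listed) in √10 steps.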

NCI-H650 = test system: NCI-H650
How it was run: as §1

PC-3 [JPC-3] = test system: PC-3 [JPC-3]
How it was run: as §1

NCI-H358 = test system: NCI-H358
How it was run: as §1

SK-MES-1 = test system: SK-MES-1
How it was run: as §1

BEN = test system: BEN
How it was run: as §1

LU99A = test system: LU99A
How it was run: as §1

NCI-H661 = test system: NCI-H661
How it was run: as §1

NCI-H1975 = test system: NCI-H1975
How it was run: as §1

NCI-H596 = test system: NCI-H596
How it was run: as §1

NCI-H1666 = test system: NCI-H1666
How it was run: as §1

NCI-H1944 = test system: NCI-H1944
How it was run: as §1

LXF-289 = test system: LXF-289
How it was run: as §1

LCLC-97TM1 = test system: LCLC-97TM1
How it was run: as §1

NCI-H2342 = test system: NCI-H2342
How it was run: as §1

NCI-H1651 = test system: NCI-H1651
How it was run: as §1

LK-2 = test system: LK-2
How it was run: as §1

NCI-H2087 = test system: NCI-H2087
How it was run: as §1

HCC-78 = test system: HCC-78
How it was run: as §1

LC-2-ad = test system: LC-2-ad
How it was run: as §1

ChaGo-K-1 = test system: ChaGo-K-1
How it was run: as §1

NCI-H838 = test system: NCI-H838
How it was run: as §1

## Nc1ccn([C@@H]2O[C@H](CO)[C@@H](O)[C@@H]2O)c(=O)n1 [Cytarabine] + O=C(CCCCCCC(=O)Nc1ccccc1)NO [Vorinostat] (partner 1 µM)
NCI-H1355; first compound 0.005 µM
  relative viability: 0.578
NCI-H1355; first compound 0.01581 µM
  relative viability: 0.638
NCI-H1355; first compound 0.05 µM
  relative viability: 0.64
NCI-H1355; first compound 0.1581 µM
  relative viability: 0.458
NCI-H1355; first compound 0.5 µM
  relative viability: 0.299
NCI-H650; first compound 0.005 µM
  relative viability: 0.417
NCI-H650; first compound 0.01581 µM
  relative viability: 0.315
NCI-H650; first compound 0.05 µM
  relative viability: 0.212
NCI-H650; first compound 0.1581 µM
  relative viability: 0.136
NCI-H650; first compound 0.5 µM
  relative viability: 0.112
PC-3 [JPC-3]; first compound 0.005 µM
  relative viability: 0.78
PC-3 [JPC-3]; first compound 0.01581 µM
  relative viability: 0.775
PC-3 [JPC-3]; first compound 0.05 µM
  relative viability: 0.546
PC-3 [JPC-3]; first compound 0.1581 µM
  relative viability: 0.466
PC-3 [JPC-3]; first compound 0.5 µM
  relative viability: 0.592
NCI-H358; first compound 0.005 µM
  relative viability: 0.632
NCI-H358; first compound 0.01581 µM
  relative viability: 0.557
NCI-H358; first compound 0.05 µM
  relative viability: 0.538
NCI-H358; first compound 0.1581 µM
  relative viability: 0.178
NCI-H358; first compound 0.5 µM
  relative viability: 0.113
SK-MES-1; first compound 0.005 µM
  relative viability: 0.851
SK-MES-1; first compound 0.01581 µM
  relative viability: 0.778
SK-MES-1; first compound 0.05 µM
  relative viability: 0.6
SK-MES-1; first compound 0.1581 µM
  relative viability: 0.283
SK-MES-1; first compound 0.5 µM
  relative viability: 0.233
BEN; first compound 0.005 µM
  relative viability: 0.553
BEN; first compound 0.01581 µM
  relative viability: 0.56
BEN; first compound 0.05 µM
  relative viability: 0.447
BEN; first compound 0.1581 µM
  relative viability: 0.394
BEN; first compound 0.5 µM
  relative viability: 0.364
LU99A; first compound 0.005 µM
  relative viability: 0.451
LU99A; first compound 0.01581 µM
  relative viability: 0.468
LU99A; first compound 0.05 µM
  relative viability: 0.554
LU99A; first compound 0.1581 µM
  relative viability: 0.455
LU99A; first compound 0.5 µM
  relative viability: 0.375
NCI-H661; first compound 0.005 µM
  relative viability: 0.751
NCI-H661; first compound 0.01581 µM
  relative viability: 0.698
NCI-H661; first compound 0.05 µM
  relative viability: 0.6
NCI-H661; first compound 0.1581 µM
  relative viability: 0.513
NCI-H661; first compound 0.5 µM
  relative viability: 0.456
NCI-H1975; first compound 0.005 µM
  relative viability: 0.572
NCI-H1975; first compound 0.01581 µM
  relative viability: 0.675
NCI-H1975; first compound 0.05 µM
  relative viability: 0.568
NCI-H1975; first compound 0.1581 µM
  relative viability: 0.429
NCI-H1975; first compound 0.5 µM
  relative viability: 0.287
NCI-H596; first compound 0.005 µM
  relative viability: 0.545
NCI-H596; first compound 0.01581 µM
  relative viability: 0.553
NCI-H596; first compound 0.05 µM
  relative viability: 0.502
NCI-H596; first compound 0.1581 µM
  relative viability: 0.431
NCI-H596; first compound 0.5 µM
  relative viability: 0.272
NCI-H1666; first compound 0.005 µM
  relative viability: 0.948
NCI-H1666; first compound 0.01581 µM
  relative viability: 0.843
NCI-H1666; first compound 0.05 µM
  relative viability: 0.768
NCI-H1666; first compound 0.1581 µM
  relative viability: 0.733
NCI-H1666; first compound 0.5 µM
  relative viability: 0.619
NCI-H1944; first compound 0.005 µM
  relative viability: 0.508
NCI-H1944; first compound 0.01581 µM
  relative viability: 0.326
NCI-H1944; first compound 0.05 µM
  relative viability: 0.309
NCI-H1944; first compound 0.1581 µM
  relative viability: 0.203
NCI-H1944; first compound 0.5 µM
  relative viability: 0.159
LXF-289; first compound 0.005 µM
  relative viability: 0.736
LXF-289; first compound 0.01581 µM
  relative viability: 0.856
LXF-289; first compound 0.05 µM
  relative viability: 0.639
LXF-289; first compound 0.1581 µM
  relative viability: 0.464
LXF-289; first compound 0.5 µM
  relative viability: 0.27
LCLC-97TM1; first compound 0.005 µM
  relative viability: 0.752
LCLC-97TM1; first compound 0.01581 µM
  relative viability: 0.562
LCLC-97TM1; first compound 0.05 µM
  relative viability: 0.166
LCLC-97TM1; first compound 0.1581 µM
  relative viability: 0.275
LCLC-97TM1; first compound 0.5 µM
  relative viability: 0.102
NCI-H2342; first compound 0.005 µM
  relative viability: 0.718
NCI-H2342; first compound 0.01581 µM
  relative viability: 0.698
NCI-H2342; first compound 0.05 µM
  relative viability: 0.657
NCI-H2342; first compound 0.1581 µM
  relative viability: 0.52
NCI-H2342; first compound 0.5 µM
  relative viability: 0.465
NCI-H1651; first compound 0.005 µM
  relative viability: 0.585
NCI-H1651; first compound 0.01581 µM
  relative viability: 0.535
NCI-H1651; first compound 0.05 µM
  relative viability: 0.242
NCI-H1651; first compound 0.1581 µM
  relative viability: 0.489
NCI-H1651; first compound 0.5 µM
  relative viability: 0.417
LK-2; first compound 0.005 µM
  relative viability: 0.244
LK-2; first compound 0.01581 µM
  relative viability: 0.29
LK-2; first compound 0.05 µM
  relative viability: 0.242
LK-2; first compound 0.1581 µM
  relative viability: 0.143
LK-2; first compound 0.5 µM
  relative viability: 0.119
NCI-H2087; first compound 0.005 µM
  relative viability: 0.416
NCI-H2087; first compound 0.01581 µM
  relative viability: 0.961
NCI-H2087; first compound 0.05 µM
  relative viability: 0.598
NCI-H2087; first compound 0.1581 µM
  relative viability: 0.288
NCI-H2087; first compound 0.5 µM
  relative viability: 0.308
HCC-78; first compound 0.005 µM
  relative viability: 0.498
HCC-78; first compound 0.01581 µM
  relative viability: 0.471
HCC-78; first compound 0.05 µM
  relative viability: 0.402
HCC-78; first compound 0.1581 µM
  relative viability: 0.348
HCC-78; first compound 0.5 µM
  relative viability: 0.263
LC-2-ad; first compound 0.005 µM
  relative viability: 0.766
LC-2-ad; first compound 0.01581 µM
  relative viability: 0.691
LC-2-ad; first compound 0.05 µM
  relative viability: 0.67
LC-2-ad; first compound 0.1581 µM
  relative viability: 0.646
LC-2-ad; first compound 0.5 µM
  relative viability: 0.436
ChaGo-K-1; first compound 0.005 µM
  relative viability: 0.673
ChaGo-K-1; first compound 0.01581 µM
  relative viability: 0.649
ChaGo-K-1; first compound 0.05 µM
  relative viability: 0.471
ChaGo-K-1; first compound 0.1581 µM
  relative viability: 0.408
ChaGo-K-1; first compound 0.5 µM
  relative viability: 0.288
NCI-H838; first compound 0.005 µM
  relative viability: 0.715
NCI-H838; first compound 0.01581 µM
  relative viability: 0.651
NCI-H838; first compound 0.05 µM
  relative viability: 0.654
NCI-H838; first compound 0.1581 µM
  relative viability: 0.515
NCI-H838; first compound 0.5 µM
  relative viability: 0.318
